Reference: ChEMBL document CHEMBL2440076, “New triarylpyrazoles as broad-spectrum anticancer agents: design, synthesis, and biological evaluation” (Eur J Med Chem, 2013)
pIC50: −log10 of the molar value.

Columns and labels:
MDA-MB-468 = assay: Growth inhibition of human MDA-MB-468 cells assessed as cell growth at 10 uM after 48 hrs by sulforhodamine B assay; assay type: functional; conditions: MDA-MB-468, 48 h, read-out: Activity
UO-31 = assay: Growth inhibition of human UO31 cells assessed as cell growth at 10 uM after 48 hrs by sulforhodamine B assay; assay type: functional; conditions: UO-31, 48 h, read-out: Activity
PC-3 = assay: Growth inhibition of human PC3 cells assessed as cell growth at 10 uM after 48 hrs by sulforhodamine B assay; assay type: functional; conditions: PC-3, 48 h, read-out: Activity
HCT-15 [1] = assay: Growth inhibition of human HCT15 cells after 48 hrs by sulforhodamine B assay; assay type: functional; conditions: HCT-15, 48 h
NCI-H522 [2] = assay: Growth inhibition of human NCI-H522 cells after 48 hrs by sulforhodamine B assay; assay type: functional; conditions: NCI-H522, 48 h
COLO 205 = assay: Growth inhibition of human COLO205 cells after 48 hrs by sulforhodamine B assay; assay type: functional; conditions: COLO 205, 48 h
NCI-H460 = assay: Growth inhibition of human NCI-H460 cells after 48 hrs by sulforhodamine B assay; assay type: functional; conditions: NCI-H460, 48 h
HOP-62 = assay: Growth inhibition of human HOP62 cells after 48 hrs by sulforhodamine B assay; assay type: functional; conditions: HOP-62, 48 h
HOP-92 = assay: Growth inhibition of human HOP92 cells after 48 hrs by sulforhodamine B assay; assay type: functional, cell-based; conditions: HOP-92, 48 h
K562 = assay: Growth inhibition of human K562 cells after 48 hrs by sulforhodamine B assay; assay type: functional; conditions: K562, 48 h
HL-60(TB) = assay: Growth inhibition of human HL-60(TB) cells after 48 hrs by sulforhodamine B assay; assay type: functional; conditions: HL-60, 48 h
OVCAR-5 = assay: Growth inhibition of human OVCAR5 cells assessed as cell growth at 10 uM after 48 hrs by sulforhodamine B assay; assay type: functional; conditions: OVCAR-5, 48 h, read-out: Activity
OVCAR-8 [3] = assay: Growth inhibition of human OVCAR8 cells assessed as cell growth at 10 uM after 48 hrs by sulforhodamine B assay; assay type: functional; conditions: OVCAR-8, 48 h, read-out: Activity
OVCAR-3 = assay: Growth inhibition of human OVCAR3 cells assessed as cell growth at 10 uM after 48 hrs by sulforhodamine B assay; assay type: functional; conditions: OVCAR-3, 48 h, read-out: Activity
SK-MEL-2 = assay: Growth inhibition of human SK-MEL-2 cells assessed as cell growth at 10 uM after 48 hrs by sulforhodamine B assay; assay type: functional; conditions: SK-MEL-2, 48 h, read-out: Activity
M14 = assay: Growth inhibition of human M14 cells assessed as cell growth at 10 uM after 48 hrs by sulforhodamine B assay; assay type: functional; conditions: M14, 48 h, read-out: Activity
SW-620 = assay: Growth inhibition of human SW620 cells assessed as cell growth at 10 uM after 48 hrs by sulforhodamine B assay; assay type: functional; conditions: SW-620, 48 h, read-out: Activity
HT-29 = assay: Growth inhibition of human HT-29 cells assessed as cell growth at 10 uM after 48 hrs by sulforhodamine B assay; assay type: functional; conditions: HT-29, 48 h, read-out: Activity
KM12 = assay: Growth inhibition of human KM12 cells assessed as cell growth at 10 uM after 48 hrs by sulforhodamine B assay; assay type: functional; conditions: KM12, 48 h, read-out: Activity
HCT-15 [4] = assay: Growth inhibition of human HCT15 cells assessed as cell growth at 10 uM after 48 hrs by sulforhodamine B assay; assay type: functional; conditions: HCT-15, 48 h, read-out: Activity
NCI-H522 [5] = assay: Growth inhibition of human NCI-H522 cells assessed as cell growth at 10 uM after 48 hrs by sulforhodamine B assay; assay type: functional; conditions: NCI-H522, 48 h, read-out: Activity
NCI-H23 = assay: Growth inhibition of human NCI-H23 cells assessed as cell growth at 10 uM after 48 hrs by sulforhodamine B assay; assay type: functional; conditions: NCI-H23, 48 h, read-out: Activity
BT-549 = assay: Growth inhibition of human BT549 cells after 48 hrs by sulforhodamine B assay; assay type: functional; conditions: BT-549, 48 h
T47D = assay: Growth inhibition of human T47D cells after 48 hrs by sulforhodamine B assay; assay type: functional
DU-145 = assay: Growth inhibition of human DU145 cells after 48 hrs by sulforhodamine B assay; assay type: functional; conditions: DU-145, 48 h
CAKI-1 = assay: Growth inhibition of human CAKI-1 cells after 48 hrs by sulforhodamine B assay; assay type: functional; conditions: CAKI-1, 48 h
786-0 = assay: Growth inhibition of human 786-0 cells after 48 hrs by sulforhodamine B assay; assay type: functional; conditions: 786-0, 48 h
SK-OV-3 = assay: Growth inhibition of human SKOV3 cells after 48 hrs by sulforhodamine B assay; assay type: functional; conditions: SK-OV-3, 48 h
OVCAR-8 [6] = assay: Growth inhibition of human OVCAR8 cells after 48 hrs by sulforhodamine B assay; assay type: functional; conditions: OVCAR-8, 48 h
SK-MEL-28 = assay: Growth inhibition of human SK-MEL-28 cells after 48 hrs by sulforhodamine B assay; assay type: functional; conditions: SK-MEL-28, 48 h
LOX IMVI = assay: Growth inhibition of human LOXIMVI cells after 48 hrs by sulforhodamine B assay; assay type: functional
SF-539 = assay: Growth inhibition of human SF539 cells after 48 hrs by sulforhodamine B assay; assay type: functional; conditions: SF-539, 48 h
RPMI-8226 = assay: Growth inhibition of human RPMI8226 cells assessed as cell growth at 10 uM after 48 hrs by sulforhodamine B assay; assay type: functional; conditions: RPMI-8226, 48 h, read-out: Activity
MOLT-4 = assay: Growth inhibition of human MOLT4 cells assessed as cell growth at 10 uM after 48 hrs by sulforhodamine B assay; assay type: functional; conditions: MOLT-4, 48 h, read-out: Activity
[7] = read-out: LC50 (the source's name)

What does the source list for `COc1cc(-c2nn(-c3cccc(NC(=O)c4ccccc4)c3)cc2-c2ccncc2)ccc1Cl`?
growth at 10 µM (MDA-MB-468): -19.7%; growth at 10 µM (UO-31): 29.8%; growth at 10 µM (PC-3): 10.5%; GI50 (HCT-15 [1]): 0.654 µM; LC50 (HCT-15 [1]): > 100 µM; TGI (HCT-15 [1]): > 100 µM; GI50 (NCI-H522 [2]): 0.317 µM; LC50 (concentration killing 50% of cells) (NCI-H522 [2]): > 100 µM; TGI (NCI-H522 [2]): > 100 µM; GI50 (COLO 205): 0.522 µM; LC50 (concentration killing 50% of cells) (COLO 205): 68.4 µM; TGI (COLO 205): 3.23 µM; GI50 (NCI-H460): 0.394 µM; LC50 (NCI-H460): > 100 µM; TGI (NCI-H460): > 100 µM; GI50 (HOP-62): 8.34 µM; TGI (HOP-62): > 100 µM; CC50 (HOP-62; [7]): > 100 µM; GI50 (HOP-92): 0.324 µM; pIC50 (HOP-92): 6.49; LC50 (HOP-92): > 100 µM; TGI (HOP-92): 4.71 µM; GI50 (K562): 0.421 µM; TGI (K562): > 100 µM; CC50 (K562; [7]): > 100 µM; GI50 (HL-60(TB)): 0.479 µM; TGI (HL-60(TB)): > 100 µM; CC50 (HL-60(TB); [7]): > 100 µM; growth at 10 µM (OVCAR-5): 66.4%; growth at 10 µM (OVCAR-8 [3]): 19.6%; growth at 10 µM (OVCAR-3): 0.02%; growth at 10 µM (SK-MEL-2): -42.5%; growth at 10 µM (M14): -3.82%; growth at 10 µM (SW-620): 18.4%; growth at 10 µM (HT-29): 2.03%; growth at 10 µM (KM12): 12.3%; growth at 10 µM (HCT-15 [4]): 19.2%; growth at 10 µM (NCI-H522 [5]): -29.6%; growth at 10 µM (NCI-H23): 33.8%; GI50 (BT-549): 1.33 µM; LC50 (50% lethal concentration) (BT-549): > 100 µM; TGI (BT-549): > 100 µM; GI50 (T47D): 1.9 µM; TGI (T47D): > 100 µM; CC50 (T47D; [7]): > 100 µM; GI50 (DU-145): 0.78 µM; LC50 (DU-145): > 100 µM; TGI (DU-145): 54.7 µM; GI50 (CAKI-1): 1.16 µM; TGI (CAKI-1): > 100 µM; CC50 (CAKI-1; [7]): > 100 µM; GI50 (786-0): 1.52 µM; TGI (786-0): > 100 µM; CC50 (786-0; [7]): > 100 µM; GI50 (SK-OV-3): 1.07 µM; TGI (SK-OV-3): > 100 µM; CC50 (SK-OV-3; [7]): > 100 µM; GI50 (OVCAR-8 [6]): 0.995 µM; TGI (OVCAR-8 [6]): > 100 µM; CC50 (OVCAR-8 [6]; [7]): > 100 µM; GI50 (SK-MEL-28): 3.86 µM; LC50 (SK-MEL-28): > 100 µM; TGI (SK-MEL-28): > 100 µM; GI50 (LOX IMVI): 0.567 µM; LC50 (LOX IMVI): > 100 µM; TGI (LOX IMVI): > 100 µM; GI50 (SF-539): 0.387 µM; LC50 (concentration killing 50% of cells) (SF-539): > 100 µM; TGI (SF-539): 2.88 µM; growth at 10 µM (RPMI-8226): 9.39%; growth at 10 µM (MOLT-4): 0.66%

How did the growth at 10 µM (MDA-MB-468) turn out when `O=C(Nc1cccc(-n2cc(-c3ccncc3)c(-c3ccc(Cl)c(O)c3)n2)c1)c1ccccc1` was run?
The growth at 10 µM was 64.1%.

What about the growth at 10 µM (UO-31) of the same molecule?
Its growth at 10 µM is 83.1%.

What about the growth at 10 µM (PC-3) of the same molecule?
Its growth at 10 µM is 50.3%.

What about the growth at 10 µM (OVCAR-5) of the same molecule?
Its growth at 10 µM is 115%.

What about the growth at 10 µM (OVCAR-8 [3]) of the same molecule?
Its growth at 10 µM is 50.9%.

And the growth at 10 µM (OVCAR-3)?
Its growth at 10 µM is 82.1%.

What about the growth at 10 µM (SK-MEL-2) of the same molecule?
Its growth at 10 µM is 67.9%.

And the growth at 10 µM (M14)?
Its growth at 10 µM is 54.9%.

What about the growth at 10 µM (SW-620) of the same molecule?
Its growth at 10 µM is 76.9%.

And the growth at 10 µM (HT-29)?
The growth at 10 µM was 53.5%.

And the growth at 10 µM (KM12)?
Its growth at 10 µM is 70.1%.

And the growth at 10 µM (HCT-15 [4])?
The growth at 10 µM was 58.2%.

And the growth at 10 µM (NCI-H522 [5])?
The growth at 10 µM was 42.3%.

And the growth at 10 µM (NCI-H23)?
The growth at 10 µM was 90.8%.

And the growth at 10 µM (RPMI-8226)?
Its growth at 10 µM is 60.5%.

What about the growth at 10 µM (MOLT-4) of the same molecule?
Its growth at 10 µM is 69.5%.
